Calls of active or inactive are those of the source. The calls are words filed in the database; no cut-off is given here.
What was measured:
[1] = target: Galectin-1 (Homo sapiens) (UniProt P09382); experiment: Inhibition of biotinylated proto type galectin-1 in human Capan-1 cells after 30 mins by FACS analysis relative to control; format: cell-based
[2] = target: Galectin-3 (Homo sapiens) (UniProt P17931); experiment: Inhibition of biotinylated chimera type galectin-3 in human Capan-1 cells after 30 mins by FACS analysis relative to control; format: cell-based
[3] = target: T1, Galectin-8 (Homo sapiens) (UniProt O00214); experiment: Inhibition of biotinylated tandem repeat type galectin-8 in human Capan-1 cells after 30 mins by FACS analysis relative to control; format: cell-based
T1 sequence (whole entry): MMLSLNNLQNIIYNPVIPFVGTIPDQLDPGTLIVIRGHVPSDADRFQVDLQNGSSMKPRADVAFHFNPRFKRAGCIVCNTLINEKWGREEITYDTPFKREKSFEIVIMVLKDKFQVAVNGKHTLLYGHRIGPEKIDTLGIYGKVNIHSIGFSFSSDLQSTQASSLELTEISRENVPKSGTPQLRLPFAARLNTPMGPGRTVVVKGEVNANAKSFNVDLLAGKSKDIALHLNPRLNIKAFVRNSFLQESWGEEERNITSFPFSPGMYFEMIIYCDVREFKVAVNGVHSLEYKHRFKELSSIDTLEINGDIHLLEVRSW

[4] = target: Galectin-3 (Mus musculus, UniProt P16110); experiment: Inhibition of galectin-3 in C57BL/6 mouse jejunum using SK-5100 as substrate incubated for 30 mins by VAA staining based microscopic analysis
[5] = target: Galectin-1 (Mus musculus) (UniProt P16045); experiment: Inhibition of galectin-1 in C57BL/6 mouse jejunum using SK-5100 as substrate incubated for 30 mins by VAA staining based microscopic analysis relative to free lactose
[6] = target: T2, Galectin-8 (Mus musculus) (UniProt Q9JL15); experiment: Inhibition of galectin-8 in C57BL/6 mouse jejunum using SK-5100 as substrate incubated for 30 mins by VAA staining based microscopic analysis relative to free lactose
T2 sequence (whole entry): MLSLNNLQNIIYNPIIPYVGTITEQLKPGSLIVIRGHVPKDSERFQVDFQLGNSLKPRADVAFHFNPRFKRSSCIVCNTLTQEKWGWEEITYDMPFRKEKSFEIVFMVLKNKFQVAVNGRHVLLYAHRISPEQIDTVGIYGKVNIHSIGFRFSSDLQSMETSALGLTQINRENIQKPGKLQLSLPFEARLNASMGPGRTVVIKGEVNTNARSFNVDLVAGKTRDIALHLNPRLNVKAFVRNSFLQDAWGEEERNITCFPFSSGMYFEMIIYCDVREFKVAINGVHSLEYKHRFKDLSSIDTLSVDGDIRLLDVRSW

[7] = Inhibition of lectin in C57BL/6 mouse kidney using SK-5100 as substrate incubated for 30 mins by VAA staining based microscopic analysis

Sequence of Galectin-3 (Homo sapiens) (P17931 whole entry): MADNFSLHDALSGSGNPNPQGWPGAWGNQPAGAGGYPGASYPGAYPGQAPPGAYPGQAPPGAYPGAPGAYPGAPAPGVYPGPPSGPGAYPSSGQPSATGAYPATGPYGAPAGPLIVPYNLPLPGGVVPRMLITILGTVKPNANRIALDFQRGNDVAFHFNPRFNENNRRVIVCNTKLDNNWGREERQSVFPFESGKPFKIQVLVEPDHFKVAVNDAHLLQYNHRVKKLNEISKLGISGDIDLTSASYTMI
Sequence of Galectin-1 (Homo sapiens) (P09382 whole entry): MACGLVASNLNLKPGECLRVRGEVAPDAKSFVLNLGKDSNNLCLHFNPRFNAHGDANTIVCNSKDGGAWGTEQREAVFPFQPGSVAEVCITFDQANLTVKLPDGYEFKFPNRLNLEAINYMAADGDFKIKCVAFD
Sequence of Galectin-3 (P16110 whole entry): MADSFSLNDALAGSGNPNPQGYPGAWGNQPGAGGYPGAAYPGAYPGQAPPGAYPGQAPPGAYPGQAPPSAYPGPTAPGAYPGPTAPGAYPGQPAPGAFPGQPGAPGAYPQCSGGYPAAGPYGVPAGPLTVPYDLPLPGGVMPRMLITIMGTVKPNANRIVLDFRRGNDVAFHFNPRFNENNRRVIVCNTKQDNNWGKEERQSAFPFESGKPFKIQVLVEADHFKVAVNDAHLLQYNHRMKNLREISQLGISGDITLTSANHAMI
Sequence of Galectin-1 (Mus musculus) (P16045 whole entry): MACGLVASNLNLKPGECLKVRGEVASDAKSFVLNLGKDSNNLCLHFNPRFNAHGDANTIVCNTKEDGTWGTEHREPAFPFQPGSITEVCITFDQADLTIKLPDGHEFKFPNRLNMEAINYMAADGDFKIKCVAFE

Row | fold change (FC) [1] | fold change (FC) [2] | fold change (FC) [3] | Compound | further results
1 | 2.5 to 10 | 2.5 to 10 | 2.5 to 10 | OC[C@H]1O[C@@H]([Se]Cc2cccc(C[Se][C@@H]3O[C@H](CO)[C@H](O)[C@H](O)[C@H]3O)c2)[C@H](O)[C@@H](O)[C@H]1O | 
2 | 2.5 to 10 | 2.5 to 10 | 2.5 to 10 | OC[C@H]1O[C@@H]([Se]Cc2ccc(C[Se][C@@H]3O[C@H](CO)[C@H](O)[C@H](O)[C@H]3O)c3ccccc23)[C@H](O)[C@@H](O)[C@H]1O | 
3 | 2.5 to 10 | 2.5 to 10 | 2.5 to 10 | OC[C@H]1O[C@@H](SCc2ccc(CS[C@@H]3O[C@H](CO)[C@H](O)[C@H](O)[C@H]3O)c3ccccc23)[C@H](O)[C@@H](O)[C@H]1O | 
4 |  |  |  | OC[C@H]1O[C@@H](O[C@H]2[C@H](O)[C@@H](O)[C@H](SSCc3ccc(CSS[C@@H]4O[C@H](CO)[C@@H](O[C@@H]5O[C@H](CO)[C@H](O)[C@H](O)[C@H]5O)[C@H](O)[C@H]4O)c4ccccc34)O[C@@H]2CO)[C@H](O)[C@@H](O)[C@H]1O | inhibition [1]: Active; inhibition [2]: Active; inhibition [3]: Active; IC50 [4]: 25 µM; fold change (FC) [5]: 6; fold change (FC) [6]: 100
5 | 2.5 to 10 | 2.5 to 10 | 2.5 to 10 | OC[C@H]1O[C@@H](SSCc2cccc3c(CSS[C@@H]4O[C@H](CO)[C@H](O)[C@H](O)[C@H]4O)cccc23)[C@H](O)[C@@H](O)[C@H]1O | 
6 | 2.5 to 10 | 2.5 to 10 | 2.5 to 10 | OC[C@H]1O[C@@H]([Se]Cc2cccc3c(C[Se][C@@H]4O[C@H](CO)[C@H](O)[C@H](O)[C@H]4O)cccc23)[C@H](O)[C@@H](O)[C@H]1O | 
7 |  |  |  | O=C[C@H](O)[C@@H](O)[C@@H](O)[C@H](O)CO [GALACTOSE] | IC50 [7]: 5000 µM
8 |  |  |  | OC[C@H]1O[C@@H](O[C@H]2[C@H](O)[C@@H](O)[C@H](SCc3ccc(CS[C@@H]4O[C@H](CO)[C@@H](O[C@@H]5O[C@H](CO)[C@H](O)[C@H](O)[C@H]5O)[C@H](O)[C@H]4O)c4ccccc34)O[C@@H]2CO)[C@H](O)[C@@H](O)[C@H]1O | inhibition [1]: inactive; inhibition [2]: inactive; inhibition [3]: inactive; IC50 [4]: 50 µM; fold change (FC) [6]: 50
9 | 2.5 to 10 | 2.5 to 10 | 2.5 to 10 | OC[C@H]1O[C@@H]([Se]Cc2ccc3cc(C[Se][C@@H]4O[C@H](CO)[C@H](O)[C@H](O)[C@H]4O)ccc3c2)[C@H](O)[C@@H](O)[C@H]1O | IC50 [7]: 500 to 1000 µM
10 | 2.5 to 10 | 2.5 to 10 | 2.5 to 10 | OC[C@H]1O[C@@H]([Se]Cc2ccc(C[Se][C@@H]3O[C@H](CO)[C@H](O)[C@H](O)[C@H]3O)cc2)[C@H](O)[C@@H](O)[C@H]1O | 
11 | 2.5 to 10 | 2.5 to 10 | 2.5 to 10 | OC[C@H]1O[C@@H](SSCc2ccc(CSS[C@@H]3O[C@H](CO)[C@H](O)[C@H](O)[C@H]3O)c3ccccc23)[C@H](O)[C@@H](O)[C@H]1O | IC50 [7]: 500 to 1000 µM

Reference: ChEMBL document CHEMBL4033674, “Bivalent O-glycoside mimetics with S/disulfide/Se substitutions and aromatic core: Synthesis, molecular modeling and inhibitory activity on biomedically relevant lectins in assays of increasing physiological relevance” (Bioorg Med Chem, 2017)
